The subject of this assay is M. bovis BCG. In kind it is cell-based, Mycobacterium bovis BCG. Particulars: exponential phase M. bovis BCG, 5 days.

The results in this text go back to publication PMC12281142, “A potent phenylalkylamine disrupts mycobacterial membrane bioenergetics and augments bactericidal activity of bedaquiline” (iScience, 2025).

Molecules are shown by their SMILES.

For the compound `CCCCCCCCC(C#N)(CCCN(C)CCc1ccc(OC)c(OC)c1)c1ccc(OC)c(OC)c1` (stereo not shown) [PhA2], the “MBC99.9 (10^3-fold kill)” value is on record as 2 x MIC90.
